Laboratory results: ChEMBL document CHEMBL3217491, “Design, synthesis and biological evaluation of imidazopyridine/pyrimidine-chalcone derivatives as potential anticancer agents” (2010)
Calls of active or inactive are those of the source. The calls are words filed in the database; no cut-off is given here.

Legend:
[1] = tested on: MDA-MB-231; experiment: Growth inhibition of human MDA-MB-231 cells after 48 hrs by SRB assay; format: functional; conditions: MDA-MB-231, 48 h
[2] = Growth inhibition of human LOXIMVI cells after 48 hrs by SRB assay; format: functional; conditions: LOX IMVI
[3] = tested on: M14; experiment: Growth inhibition of human M14 cells after 48 hrs by SRB assay; format: functional; conditions: M14, 48 h
[4] = tested on: MDA-MB-435; experiment: Growth inhibition of human MDA-MB-435 cells after 48 hrs by SRB assay; format: functional; conditions: MDA-MB-435, 48 h
[5] = tested on: SK-MEL-2; experiment: Growth inhibition of human SK-MEL-2 cells after 48 hrs by SRB assay; format: functional; conditions: SK-MEL-2, 48 h
[6] = Growth inhibition of human UACC62 cells after 48 hrs by SRB assay; format: functional; conditions: UACC-62, 48 h
[7] = Growth inhibition of human UACC257 cells after 48 hrs by SRB assay; format: functional; conditions: UACC-257, 48 h
[8] = tested on: MCF7; experiment: Cell cycle arrest in human MCF7 cells assessed as accumulation at S phase at 4 uM after 24 hrs by propidium iodide staining-based flow cytometry (reference value: 20.17%); format: functional
[9] = tested on: MCF7; experiment: Induction of cell cycle arrestin human MCF7 cells assessed as downregulation of cyclin A protein expression at 4 uM by Western blot analysis; format: functional, cell-based
[10] = tested on: MCF7; experiment: Induction of cell cycle arrestin human MCF7 cells assessed as downregulation of E2F-1 protein expression at 4 uM by Western blot analysis; format: functional, cell-based
[11] = tested on: MCF7; experiment: Induction of apoptosis in human MCF7 cells assessed as of p21 protein expression at 4 uM by Western blot analysis relative to control; format: functional, cell-based
[12] = tested on: MCF7; experiment: Induction of apoptosis in human MCF7 cells expressing P21 promoter -145/+8 with luciferase gene assessed as upregulation of p21 protein expression at 4 uM by Western blot analysis relative to control; format: functional, cell-based
[13] = tested on: MCF7; experiment: Induction of apoptosis in human MCF7 cells assessed as increase in TNFR1 protein level at 4 uM by Western blot analysis relative to control; format: functional, cell-based
[14] = tested on: CCRF-CEM; experiment: Growth inhibition of human CCRF-CEM cells after 48 hrs by SRB assay; format: functional
[15] = tested on: A549; experiment: Growth inhibition of human A549 cells after 48 hrs by SRB assay; format: functional; conditions: A549, 48 h
[16] = tested on: HCT-116; experiment: Growth inhibition of human HCT116 cells after 48 hrs by SRB assay; format: functional; conditions: HCT-116, 48 h
[17] = tested on: SNB-75; experiment: Growth inhibition of human SNB75 cells after 48 hrs by SRB assay; format: functional; conditions: SNB-75, 48 h
[18] = tested on: A498; experiment: Growth inhibition of human A498 cells after 48 hrs by SRB assay; format: functional; conditions: A498, 48 h

## COc1ccc(C(=O)/C=C/c2c(C(F)(F)F)nc3ccccn23)cc1OC
[1]
  GI50: 3.06 µM
[2]
  GI50: 0.95 µM
[3]
  GI50: 3.63 µM
[4]
  GI50: 2.04 µM
[5]
  GI50: 1.72 µM
[6]
  GI50: 2.22 µM
[7]
  GI50: 0.62 µM
[8]
  Activity: 1.83%
[9]
  inhibition: inactive
[10]
  inhibition: inactive
[11]
  Activity: inactive
[12]
  Activity: Active
[13]
  Activity: Active
[14]
  GI50: 0.44 µM
[15]
  GI50: 2.8 µM
[16]
  GI50: 0.84 µM
[17]
  GI50: 2.35 µM
[18]
  GI50: 2.45 µM
